Where two headings read alike, the source gives them in different places.
Key:
[1] = Lipophilicity: octanol-water partition coefficient, shake-flask method
Procedure: The octanol-water partition coefficients (P) of all the complexes were determined using a shake-flask method^8. Water (100 mL, distilled after milli-Q purification) and n-octanol (100 mL, Sigma Aldrich, ACS spectrophotometric grade, ≥99%) were shaken together for 24 h to allow saturation of both phases. Stock solutions of the compounds ([…]) were prepared in the aqueous phase. Aliquots (2 mL) of each of these stock solutions were then added to an equal volume of the n-octanol phase. The resultant biphasic solution was mixed for 15 min and then centrifuged (3000 tr/min, 5 min) to separate the phases. The concentrations of the complex in the organic and aqueous phases were then determined using UV absorbance spectroscopy (260 nm). The blank is the water saturated with n-octanol. Log P was defined as logarithm of the ratio of the concentrations of the complex in the organic and aqueous phases (values reported are the means of at least three separated determinations).
The Log P values have been determined by a classical shake-flask method.

[2] = Emission lifetime measurement; format: physicochemical
Procedure: Fluorescence lifetime measurements were performed by an Edinburgh FLS920 spectrofluorimeter equipped with a TCC900 card for data acquisition in time-correlated single-photon counting experiments (0.5 ns time resolution) with a D2 lamp and an LDH—P-C-405 pulsed diode laser. The estimated experimental error is 2 nm on the band maximum (5% on the lifetime, 10% on the fluorescence quantum yield).
The emission lifetimes of biotin-vectorized complexes (I-a) to (I-l) range from 138 ns to 411 ns, among them, the lifetime of biotin-vectorized complexes (I-c), (I-e), (I-k) are 411, 224, and 322 ns respectively. The emission lifetimes of FTS-vectorized complexes (II-a) to (II-l) range from 167 ns to 486 ns, among them, the lifetime of FTS-vectorized complexes (II-c) and (II-k) are 319 and 486 ns respectively. The emission lifetimes of PSMA-vectorized complexes (III-a) to (III-l) are in the range of 159-649 ns, among them, the lifetime of complexes (III-a) and (III-k) were 248 and 649 ns, respectively. The emission lifetimes of Fc-vectorized complexes (IV-a) to (IV-l) are in the range of 178-228 ns.

[3] = UV/Vis absorption spectra; format: physicochemical; conditions: room temperature; for maximum absorption, lowest-lying bands in the visible region over 360 nm: CH2Cl2 or CH2Cl2/MeOH (1:1); for λmax (nm) ε (M^−1 · cm^−1): air-saturated CH2Cl2 or CH2Cl2/MeOH (1:1), 50 μM, ε in brackets, sh = shoulder
Procedure: UV/Vis absorption spectra were recorded at RT on solutions contained in quartz cuvettes (optical pathlength 1 cm, Hellma®) with a PerkinElmer® UV/VIS/NIR spectrophotometer Lambda 950 and a PerkinElmer® detector UV/VIS/NIR Accessory 2D Detector Module.

[4] = Luminescence emission spectra and quantum yield; format: physicochemical; conditions: room temperature; reference POPOP in hexane or rhodamine B in ethanol
Procedure: Fluorescence and phosphorescence emission spectra were obtained with a HORIBA JOBIN YVON, fluromax-4 and spectrofluorometer.
Luminescence quantum yields were measured according to the method of Demas and Crosby, on solution samples at RT. The quantum yield is defined as: […]
Where ΦP is the quantum yield of the sample, ΦR is the know quantum yield of the reference standard. […].
The luminescence spectra of vectorized iridium(III) complexes were determined in CH2Cl2 at room temperature (Table 3).

[5] = test system: PC-3 prostate cancer cells (PSMA-negative); assay: Cell viability assay (MTT), dark and blue light; format: cell-based, Human; conditions: for GI50: read-out: GI50; for Photosensitizing index (PI): PC3, dark vs blue light
Procedure: (§1) Cells were grown in humidified incubators at 37° C. in 5% CO2. Murine MC3T3 osteoblast and NIH-3T3 fibroblast cells-used as non-tumor cell models-were cultured in a-MEM medium and DMEM medium supplemented with 10% fetal bovine serum (FBS) and 1% Penicillin/Streptomycin (P/S) antibiotics, respectively. Human T24 bladder, MGHU3 bladder, Scaber bladder, A549 lung, MCF7 breast, MiaPaCa2 pancreas cancer cells were cultured in DMEM medium supplemented with 10% FBS and 1% P/S antibiotics. Human ASPC-1 pancreas, PC-3 prostate, DU-145 prostate, C4-2B prostate and 22rV1 prostate cancer cells were cultured in RPMI medium supplemented with 10% FBS and 1% P/S antibiotics. Human Hela cervix and HepG2 liver cancer cells were cultured EMEM medium supplemented with 10% FBS and 1% P/S antibiotics.
(§2) MTT reagent (3-(4,5-dimethylthiazol-2-yl)-2,5-diphenyltetrazolium bromide) was used to determine cell death as originally described by Mosmann. Briefly, cells were seeded from 5,000 to 10,000 cells/well in 24-well plates (1 mL) depending on the cell type and allowed to attach overnight. The complexes were prepared in DMSO. The concentration of the complexes was calculated based on the elemental composition of the complexes determined by the elemental analyses. All cell viability experiments were carried out with a fixed concentration of 0.1% (v/v) DMSO. After 72 h of treatment, cells were incubated at 37° C. and 5% CO2 with 25 μL of MTT solution (5 mg/ml; Sigma-Aldrich) in 24-well plates for 3 to 4 h. After solubilization with 500 μL of DMSO, formazan was quantified spectrophotometrically with a microplate reader at 570 nm absorbance (ClarioSTAR, BMG LabTech). […] All the results were calculated from data obtained in at least three independent experiments performed in triplicate.
Irradiation was conducted using an in-house device, a series of blue light LEDs selected according to the absorption spectra of the compounds at 458 nm wavelength with an emitted power of 9.6 Watts. The light fluence was measured at 458 nm with an optical power meter Thorlabs PM100A at different distances between the cell layer and the light source (5 and 10 cm).
(§3) Two sets of experiments were conducted in parallel for each complex to be studied:
(§4) 1. The cells were incubated with the different complexes (in the dark) for 72 h.
(§5) 2. The cells were incubated for 8 h with the different complexes (in the dark), then irradiated for 10 min, followed by an incubation in the dark up to 72 h.

[6] = test system: NIH-3T3 fibroblast cells (non-tumor); assay: Cell viability assay (MTT), dark and blue light; format: cell-based, Murine; conditions: for GI50: read-out: GI50; for Photosensitizing index (PI): NIH-3T3, dark vs blue light
Procedure: as §1, with “Human ASPC-1 pancreas, PC-3 prostate, DU-145 prostate, C4-2B prostate and 22rV1 prostate cancer cells were cultured in RPMI medium supplemented with 10% FBS and 1% P/S antibiotics.” left out
as §2, §3, §4, §5

[7] = n-octanol/water, shake-flask, mean of at least three determinations

Structure (SMILES)	Log P [1, 7]	τ1 emission lifetime [2] [ns]	maximum absorption, lowest-lying bands in the visible region over 360 nm [3]	λmax (nm) ε (M^−1 · cm^−1) [3]	Log P [1]	ΦP emission phosphorescence quantum yield [4] [%]	SI (vs NIH-3T3) ([5]; PC3, blue light)	GI50 ([5]; PC3, blue light) [µM]	SI (vs NIH-3T3) ([5]; PC3, dark)	Photosensitizing index (PI) [5]	GI50 ([6]; NIH-3T3, blue light) [µM]	Photosensitizing index (PI) [6]	GI50 ([6]; NIH-3T3, dark) [µM]	GI50 ([5]; PC3, dark) [µM]	SI (vs NIH-3T3) PC-3 Blue ([5]; blue light 458 nm)
F[P-](F)(F)(F)(F)F.O=C(CCCC[C@@H]1SC[C@@H]2NC(=O)N[C@@H]21)NCCCn1cc[n+]2[c]1[Ir-3]13([c]4ccccc4-c4ccc(C(=O)O)c[n+]41)([c]1ccccc1-c1ccc(C(=O)O)c[n+]13)[n+]1ccccc1-2 [I-f]	−0.68 ± 0.07	–	–	–	–	–	–	–	–	–	–	–	–	–	–
CC(C)=CCC/C(C)=C/CC/C(C)=C/CSc1ccccc1C(=O)NCCCn1cc[n+]2[c]1[Ir-3]13([c]4ccccc4-c4cccc[n+]41)([c]1ccccc1-c1cccc[n+]13)[n+]1ccccc1-2.F[P-](F)(F)(F)(F)F [II-a]	–	210	around 380 nm	308 (sh) (14540), 380 (4505) nm (M^−1 · cm^−1)	1.70 ± 0.08	0.5	–	–	–	–	–	–	–	–	–
CC(C)=CCC/C(C)=C/CC/C(C)=C/CSc1ccccc1C(=O)NCCCn1cc[n+]2[c]1[Ir-3]13([c]4cc(C)ccc4-c4cccc[n+]41)([c]1cc(C)ccc1-c1cccc[n+]13)[n+]1ccccc1-2.F[P-](F)(F)(F)(F)F [II-b]	–	167	around 380 nm	306 (sh) (15875), 382 (4560) nm (M^−1 · cm^−1)	1.68 ± 0.02	0.4	–	–	–	–	–	–	–	–	–
COC(=O)c1ccc2[c](c1)[Ir-3]13([c]4cc(C(=O)OC)ccc4-c4cccc[n+]41)([c]1n(CCCNC(=O)c4ccccc4SC/C=C(\C)CC/C=C(\C)CCC=C(C)C)cc[n+]1-c1cccc[n+]13)[n+]1ccccc1-2.F[P-](F)(F)(F)(F)F [II-c]	–	319	–	310 (sh) (21710), 355 (5105), 398 (3925) nm (M^−1 · cm^−1)	1.08 ± 0.01	4.6	–	–	–	–	–	–	–	–	–
COC(=O)c1cccc2[c]1[Ir-3]13([c]4c(C(=O)OC)cccc4-c4cccc[n+]41)([c]1n(CCCNC(=O)c4ccccc4SC/C=C(\C)CC/C=C(\C)CCC=C(C)C)cc[n+]1-c1cccc[n+]13)[n+]1ccccc1-2.F[P-](F)(F)(F)(F)F [II-d]	–	201	around 370 nm	372 (4535) nm (M^−1 · cm^−1)	1.40 ± 0.02	0.9	–	–	–	–	–	–	–	–	–
F[P-](F)(F)(F)(F)F.O=C(NCCCn1cc[n+]2[c]1[Ir-3]13([c]4ccccc4-c4cccc[n+]41)([c]1ccccc1-c1cccc[n+]13)[n+]1ccccc1-2)[c-]1cccc1.[Fe+2].c1cc[cH-]c1 [IV-a]	0.61 ± 0.07	197	around 380 nm	304 (sh) (25840), 381 (8080) nm (M^−1 · cm^−1)	–	0.04	2.8	2.4	9.9	1.2	6.7	4.2	28.2	–	–
Cc1ccc2[c](c1)[Ir-3]13([c]4cc(C)ccc4-c4cccc[n+]41)([c]1n(CCCNC(=O)[c-]4cccc4)cc[n+]1-c1cccc[n+]13)[n+]1ccccc1-2.F[P-](F)(F)(F)(F)F.[Fe+2].c1cc[cH-]c1 [IV-b]	1.63 ± 0.02	197	around 380 nm	308 (sh) (27820), 379 (8620) nm (M^−1 · cm^−1)	–	0.03	–	–	16.4	2.2	13.2	1.1	13.9	0.85	33.8
COC(=O)c1ccc2[c](c1)[Ir-3]13([c]4cc(C(=O)OC)ccc4-c4cccc[n+]41)([c]1n(CCCNC(=O)[c-]4cccc4)cc[n+]1-c1cccc[n+]13)[n+]1ccccc1-2.F[P-](F)(F)(F)(F)F.[Fe+2].c1cc[cH-]c1 [IV-c]	–	195	–	304 (sh) (28570), 353 (sh) (7050), 399 (5315), 427 (sh) (3660) nm (M^−1 · cm^−1)	0.72 ± 0.03	0.04	10.7	–	2.2	16.8	9.3	3.5	–	–	–
COC(=O)c1cccc2[c]1[Ir-3]13([c]4c(C(=O)OC)cccc4-c4cccc[n+]41)([c]1n(CCCNC(=O)[c-]4cccc4)cc[n+]1-c1cccc[n+]13)[n+]1ccccc1-2.F[P-](F)(F)(F)(F)F.[Fe+2].c1cc[cH-]c1 [IV-d]	0.77 ± 0.01	228	around 370 nm	335 (sh) (9725), 372 (6540) nm (M^−1 · cm^−1)	–	0.03	12.0	1.3	1.3	17.0	–	1.9	–	21.6	–
F[P-](F)(F)(F)(F)F.O=C(O)c1ccc2[n+](c1)[Ir-3]13([c]4ccccc4-2)([c]2ccccc2-c2ccc(C(=O)O)c[n+]21)[c]1n(CCCNC(=O)[c-]2cccc2)cc[n+]1-c1cccc[n+]13.[Fe+2].c1cc[cH-]c1 [IV-f]	1.08 ± 0.03	202	–	304 (sh) (22560), 410 (4150) nm (M^−1 · cm^−1)	–	0.12	–	–	–	–	–	–	–	–	–
